Results as given in the NIST ThermoML archive (doi:10.1021/je0202073).

How the values were obtained:
[1] = xn = mol fraction of the nth substance listed; conditions: 101.3 kPa, Liquid
[2] = excess molar enthalpy (molar enthalpy of mixing); xn = mol fraction of the nth substance listed; conditions: 101.3 kPa, Liquid, Calvet calorimetry

CCCC(=O)OCC [ethyl butanoate] + CC(C)(C)O
Conditions	excess molar enthalpy [kcal/mol]	excess molar volume [m3/mol]
[1], 303.15 K, x1 = 0.0445	–	9.2e-07
[1], 303.15 K, x1 = 0.0966	–	2.08e-06
[1], 303.15 K, x1 = 0.1518	–	3.11e-06
[1], 303.15 K, x1 = 0.1999	–	3.83e-06
[1], 303.15 K, x1 = 0.2466	–	4.41e-06
[1], 303.15 K, x1 = 0.3111	–	5.13e-06
[1], 303.15 K, x1 = 0.3504	–	5.6e-06
[1], 303.15 K, x1 = 0.4043	–	5.91e-06
[1], 303.15 K, x1 = 0.4468	–	6.09e-06
[1], 303.15 K, x1 = 0.4837	–	6.11e-06
[1], 303.15 K, x1 = 0.5015	–	6.11e-06
[1], 303.15 K, x1 = 0.5259	–	6.07e-06
[1], 303.15 K, x1 = 0.5538	–	5.99e-06
[1], 303.15 K, x1 = 0.6004	–	5.74e-06
[1], 303.15 K, x1 = 0.6399	–	5.5e-06
[1], 303.15 K, x1 = 0.663	–	5.23e-06
[1], 303.15 K, x1 = 0.7129	–	4.83e-06
[1], 303.15 K, x1 = 0.7538	–	4.33e-06
[1], 303.15 K, x1 = 0.7934	–	3.77e-06
[1], 303.15 K, x1 = 0.8465	–	2.99e-06
[1], 303.15 K, x1 = 0.9017	–	2e-06
[1], 303.15 K, x1 = 0.9614	–	8.2e-07
[1], 318.15 K, x1 = 0.0604	–	1.83e-06
[1], 318.15 K, x1 = 0.1099	–	2.85e-06
[1], 318.15 K, x1 = 0.1559	–	3.63e-06
[1], 318.15 K, x1 = 0.2141	–	4.45e-06
[1], 318.15 K, x1 = 0.265	–	5.17e-06
[1], 318.15 K, x1 = 0.2982	–	5.41e-06
[1], 318.15 K, x1 = 0.3386	–	5.74e-06
[1], 318.15 K, x1 = 0.39	–	6.14e-06
[1], 318.15 K, x1 = 0.4477	–	6.44e-06
[1], 318.15 K, x1 = 0.4595	–	6.5e-06
[1], 318.15 K, x1 = 0.4778	–	6.53e-06
[1], 318.15 K, x1 = 0.4982	–	6.55e-06
[1], 318.15 K, x1 = 0.4996	–	6.56e-06
[1], 318.15 K, x1 = 0.5163	–	6.56e-06
[1], 318.15 K, x1 = 0.5222	–	6.55e-06
[1], 318.15 K, x1 = 0.5936	–	6.38e-06
[1], 318.15 K, x1 = 0.6597	–	6.03e-06
[1], 318.15 K, x1 = 0.7011	–	5.73e-06
[1], 318.15 K, x1 = 0.745	–	5.15e-06
[1], 318.15 K, x1 = 0.7968	–	4.5e-06
[1], 318.15 K, x1 = 0.8396	–	3.81e-06
[1], 318.15 K, x1 = 0.8701	–	3.15e-06
[1], 318.15 K, x1 = 0.9283	–	2.01e-06
[2], 299.15 K, x1 = 0.0438	0.0602	–
[2], 299.15 K, x1 = 0.0937	0.123	–
[2], 299.15 K, x1 = 0.1461	0.186	–
[2], 299.15 K, x1 = 0.1991	0.249	–
[2], 299.15 K, x1 = 0.2541	0.296	–
[2], 299.15 K, x1 = 0.3061	0.337	–
[2], 299.15 K, x1 = 0.3568	0.37	–
[2], 299.15 K, x1 = 0.4053	0.393	–
[2], 299.15 K, x1 = 0.4331	0.405	–
[2], 299.15 K, x1 = 0.4818	0.416	–
[2], 299.15 K, x1 = 0.5387	0.419	–
[2], 299.15 K, x1 = 0.6024	0.409	–
[2], 299.15 K, x1 = 0.6746	0.381	–
[2], 299.15 K, x1 = 0.7522	0.331	–
[2], 299.15 K, x1 = 0.833	0.251	–
[2], 299.15 K, x1 = 0.9172	0.143	–
[2], 318.15 K, x1 = 0.0394	0.0701	–
[2], 318.15 K, x1 = 0.0951	0.138	–
[2], 318.15 K, x1 = 0.158	0.203	–
[2], 318.15 K, x1 = 0.2201	0.26	–
[2], 318.15 K, x1 = 0.2807	0.313	–
[2], 318.15 K, x1 = 0.3377	0.349	–
[2], 318.15 K, x1 = 0.385	0.376	–
[2], 318.15 K, x1 = 0.4267	0.392	–
[2], 318.15 K, x1 = 0.4576	0.404	–
[2], 318.15 K, x1 = 0.4628	0.405	–
[2], 318.15 K, x1 = 0.4938	0.412	–
[2], 318.15 K, x1 = 0.5386	0.415	–
[2], 318.15 K, x1 = 0.5934	0.41	–
[2], 318.15 K, x1 = 0.6595	0.387	–
[2], 318.15 K, x1 = 0.7407	0.336	–
[2], 318.15 K, x1 = 0.8336	0.249	–
[2], 318.15 K, x1 = 0.9223	0.136	–
